Patent publication US5648455A, “Antibiotic WAP-8294A, method for preparing the same and antibacterial composition” (Wakamoto Pharmaceutical Co., Ltd., priority 1994, dated 1997)
Values after ≈ are worked out from the molar mass of the structure shown. Numbered stars: 1 amine (or outer) side, 2 acyl side, 3 side chain; on linkers, the order of the positions; unused ones are H or OH. Bridge positions count the residues as written; N and C are the ends. Square brackets hold non-standard residues; d marks the D form. Peptide text beside a SMILES is read from it. ξ: configuration not given here. ξAsn(3ξ-OH) = NC(=O)C(O)C(N)C(=O)O; X2 = CC(C)CCCC(CC(=O)[*:1])O[*:2]; NMeF = CN[CH](Cc1ccccc1)C(=O)O; X1 = CCCCCC(CC(=O)[*:1])O[*:2]; NMeV = CN[CH](C(=O)O)C(C)C; Orn = NCCC[CH](N)C(=O)O

Legend:
[1] = test system: Staphylococcus aureus No. 1 (a clinically isolated strain of MRSA); test: Protective effect against experimental systemic MRSA infection in mice; type: in vivo, ICR-MCH mice; conditions: dose 10 mg/kg, once subcutaneously one hour after infection
Experimental: (§1) The experiments were carried out by intra-peritoneally administering 0.5 mg/0.5 ml/mouse of cyclophosphamide to ICR-MCH mice [4-week-old male mice (available from Nippon CLEA Co., Ltd.), 8 animals per group] 3 days before the infection and then infecting the animals through intra-peritoneal administration of 0.5 ml each of a liquid containing 2×10^6 /ml of Staphylococcus aureus No. 1 strain supplemented with 5% mucin. One hour after the infection, 10 mg/kg of Vancomycin HCl (available from Shionogi & Co., Ltd.) and 0.2 ml/mouse of the antibiotic WAP-8294A (containing 10 mg/kg, 5 mg/kg, 2.5 mg/kg, 1.0 mg/kg, 0.5 mg/kg, 0.25 mg/kg, 0.1 mg/kg or 0.05 mg/kg of the antibiotic) was once subcutaneously injected to mice. To control groups, there was subcutaneously administered 0.2 ml each of physiological saline.

[2] = test system: Staphylococcus aureus JCM8702 (a clinically isolated strain of MRSA); test: as above; type: in vivo, ICR-MCH mice; conditions: dose 10 mg/kg, once subcutaneously one hour after infection
Experimental: as §1, with “2×10^4” for “2×10^6”, “JCM8702” for “No. 1”, “WAP-8294AX” for “WAP-8294A”, “10” for “10 mg/kg, 5”, “1.0” for “1.0 mg/kg, 0.5 mg/kg, 0.25 mg/kg, 0.1”, “0.5” for “0.05”

[3] = test system: Aspergillus fumigatus (IAM 2004); test: MIC, broth dilution, sensitive bouillon medium; type: cell-based
Experimental: (§2) The determination of the minimum inhibitory concentration (MIC) was carried out by broth dilution method which made use of a sensitive bouillon medium (available from Eiken Chemical Co., Ltd.).

[4] = test system: Bacillus subtilis (ATCC 6633); test: MIC, broth dilution, sensitive bouillon medium; type: cell-based
Experimental: as §2

[5] = test system: Candida albicans (TIMM 0239); test: MIC, broth dilution, sensitive bouillon medium; type: cell-based
Experimental: as §2

[6] = test system: Escherichia coli (ATCC 25922); test: MIC, broth dilution, sensitive bouillon medium; type: cell-based
Experimental: as §2

[7] = test system: Pseudomonas aeruginosa (ATCC 9027); test: MIC, broth dilution, sensitive bouillon medium; type: cell-based
Experimental: as §2

[8] = test system: Staphylococcus aureus (ATCC 25923); test: MIC, broth dilution, sensitive bouillon medium; type: cell-based
Experimental: as §2

[9] = test system: Staphylococcus aureus 371 R (MRSA clinically isolated strain); test: MIC, broth dilution, sensitive bouillon medium; type: cell-based
Experimental: as §2

[10] = test system: Staphylococcus aureus No. 1 (MRSA clinically isolated strain); test: MIC, broth dilution, sensitive bouillon medium; type: cell-based
Experimental: as §2

[11] = test system: Staphylococcus aureus No. 11 (MRSA clinically isolated strain); test: MIC, broth dilution, sensitive bouillon medium; type: cell-based
Experimental: as §2

[12] = test system: Staphylococcus epidermidis (ATCC 12228); test: MIC, broth dilution, sensitive bouillon medium; type: cell-based
Experimental: as §2

[13] = test system: Streptococcus pyogenes (ATCC 19615); test: MIC, broth dilution, sensitive bouillon medium; type: cell-based
Experimental: as §2

[14] = test system: Gram-positive bacteria including MRSA (methicillin-resistant Staphylococcus aureus); test: Antibacterial activity, summary of Table 4; type: cell-based; conditions: for increase of antibacterial activity when 10% bovine serum is added to the culture medium: relative to culture medium without serum; for antibacterial activity against Gram-positive bacteria including MRSA: sensitive bouillon medium, Table 4
Experimental: as §2

[15] = Solubility; type: physicochemical; conditions: solvents
[16] = Addition of Serum: 10% (bovine serum)

SMILES | MIC [3, 16] [µg/mL] | MIC ([3]; Addition of Serum: None) [µg/mL] | MIC [4, 16] [µg/mL] | MIC ([4]; Addition of Serum: None) [µg/mL] | MIC [5, 16] [µg/mL] | MIC ([5]; Addition of Serum: None) [µg/mL] | MIC [6, 16] [µg/mL] | MIC ([6]; Addition of Serum: None) [µg/mL] | MIC [7, 16] [µg/mL] | MIC ([7]; Addition of Serum: None) [µg/mL] | MIC [8, 16] [µg/mL] | MIC ([8]; Addition of Serum: None) [µg/mL] | MIC [9, 16] [µg/mL] | MIC ([9]; Addition of Serum: None) [µg/mL] | MIC [10, 16] [µg/mL] | MIC ([10]; Addition of Serum: None) [µg/mL] | MIC [11, 16] [µg/mL] | MIC ([11]; Addition of Serum: None) [µg/mL] | MIC [12, 16] [µg/mL] | MIC ([12]; Addition of Serum: None) [µg/mL] | also measured
CN[C@H](CC(C)C)C(=O)N[C@H]1C(=O)N[C@@H](CC(N)=O)C(=O)N[C@H]2C(=O)N[C@H]3C(=O)N[C@H](C(=O)N[C@H](C(=O)O)c4cc(O)cc(O)c4-c4cc3ccc4O)[C@H](O)c3ccc(c(Cl)c3)Oc3cc2cc(c3O[C@@H]2O[C@H](CO)[C@@H](O)[C@H](O)[C@H]2O[C@H]2C[C@](C)(N)[C@H](O)[C@H](C)O2)Oc2ccc(cc2Cl)[C@H]1O [Vancomycin] | – | – | – | – | – | – | – | – | – | – | – | – | – | – | – | – | – | – | – | – | Survival/No. of Test Animals [1]: 5/8; Survival/No. of Test Animals [2]: 5/8
CC(C)CCCC1CC(=O)NC(CO)C(=O)NC(C(O)C(N)=O)C(=O)NC(CO)C(=O)NCC(=O)N(C)C(Cc2ccccc2)C(=O)NC(CC(C)C)C(=O)NC(CCCN)C(=O)NC(CCC(=O)O)C(=O)NC(CC(N)=O)C(=O)NC(Cc2c[nH]c3ccccc23)C(=O)NC(CCCN)C(=O)N(C)C(C(C)C)C(=O)O1 (stereo not shown) [WAP-8294A2] (S[ξAsn(3ξ-OH)]SG[NMeF]L[Orn]ENW[Orn][NMeV]; linker N-C via X2; configuration not given here) | > 100 | > 100 | < 0.10 | 0.78 (≈ 0.499 µM) | > 100 | > 100 | > 100 | > 100 | > 100 | > 100 | < 0.10 | 0.78 (≈ 0.499 µM) | < 0.10 | 0.78 (≈ 0.499 µM) | < 0.10 | 0.78 (≈ 0.499 µM) | < 0.10 | 0.78 (≈ 0.499 µM) | < 0.10 | 0.78 (≈ 0.499 µM) | MIC [13, 16]: 25 µg/mL (≈ 16 µM); MIC ([13]; Addition of Serum: None): 6.25 µg/mL (≈ 4 µM); increase of antibacterial activity when 10% bovine serum is added to the culture medium [14]: not less than 8 times; antibacterial activity against Gram-positive bacteria including MRSA [14]: strong antibacterial activity; Solubility [15]: soluble in water, methanol, n-butanol, dimethylformamide and dimethylsulfoxide and insoluble in acetone, ethyl acetate and chloroform
CCCCCC1CC(=O)NC(CO)C(=O)NC(C(O)C(N)=O)C(=O)NC(CO)C(=O)NCC(=O)N(C)C(Cc2ccccc2)C(=O)NC(CC(C)C)C(=O)NC(CCCN)C(=O)NC(CCC(=O)O)C(=O)NC(CC(N)=O)C(=O)NC(Cc2c[nH]c3ccccc23)C(=O)NC(CCCN)C(=O)N(C)C(C(C)C)C(=O)O1 (stereo not shown) [WAP-8294A1] (S[ξAsn(3ξ-OH)]SG[NMeF]L[Orn]ENW[Orn][NMeV]; linker N-C via X1; configuration not given here) | > 100 | > 100 | < 0.10 | 0.39 (≈ 0.252 µM) | > 100 | > 100 | > 100 | > 100 | > 100 | > 100 | < 0.10 | 0.39 (≈ 0.252 µM) | < 0.10 | 0.39 (≈ 0.252 µM) | < 0.10 | 0.39 (≈ 0.252 µM) | < 0.10 | 0.39 (≈ 0.252 µM) | < 0.10 | 0.39 (≈ 0.252 µM) | MIC [13, 16]: 25 µg/mL (≈ 16.1 µM); MIC ([13]; Addition of Serum: None): 6.25 µg/mL (≈ 4.04 µM); increase of antibacterial activity when 10% bovine serum is added to the culture medium [14]: not less than 8 times; antibacterial activity against Gram-positive bacteria including MRSA [14]: strong antibacterial activity; Solubility [15]: soluble in water, methanol, n-butanol, dimethylformamide and dimethylsulfoxide and insoluble in acetone, ethyl acetate and chloroform
